US6737383B1, “Herbicidal oxadiazolidines” (priority 1999, dated 2004)

Experiments:
bedstraw = test: Test B pre/postemergence bedstraw; assay type: in vivo, Galium aparine
Procedure, shortened: (§1)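 Herbicidal effect was estimated by eye on a ten-point control scale after plants spent twelve to sixteen days in a greenhouse following soil or foliar treatment. Foliar sprays targeted plants at one to four leaves; all doses were formulated in a non-phytotoxic solvent with surfactant.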

blackgrass = test: Test B pre/postemergence blackgrass; assay type: in vivo, Alopecurus myosuroides
Procedure, shortened: as §1

surinam grass = test: Test B pre/postemergence surinam grass; assay type: in vivo, Brachiaria decumbens
Procedure, shortened: as §1

corn = test: Test B pre/postemergence corn; assay type: in vivo, Zea mays
Procedure, shortened: as §1

crabgrass = test: Test B pre/postemergence crabgrass; assay type: in vivo, Digitaria sanguinalis
Procedure, shortened: as §1

giant foxtail = test: Test B pre/postemergence giant foxtail; assay type: in vivo, Setaria faberii
Procedure, shortened: as §1

morningglory = test: Test B pre/postemergence morningglory; assay type: in vivo, Ipomoea hederacea
Procedure, shortened: as §1

pigweed = test: Test B pre/postemergence pigweed; assay type: in vivo, Amaranthus retroflexus
Procedure, shortened: as §1

rape = test: Test B pre/postemergence rape; assay type: in vivo, Brassica napus
Procedure, shortened: as §1

sugar beet = test: Test B pre/postemergence sugar beet; assay type: in vivo, Beta vulgaris
Procedure, shortened: as §1

wheat = test: Test B pre/postemergence wheat; assay type: in vivo, Triticum aestivum
Procedure, shortened: as §1

wild oat = test: Test B pre/postemergence wild oat; assay type: in vivo, Avena fatua
Procedure, shortened: as §1

purple nutsedge = test: Test B pre/postemergence purple nutsedge; assay type: in vivo, Cyperus rotundus; settings: Postemergence; for Nutsedge plant response rating: 10 is complete control
Procedure, shortened: as §1

rice = test: Test B flood test rice; assay type: in vivo, Oryza sativa
Procedure, shortened: (§2)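 Each value is a visual injury score relative to controls, with 10 meaning complete control and 0 no effect. Evaluation took place twelve to sixteen days after the 2-leaf-stage plants were treated and kept in the greenhouse.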

smallflower flatsedge = test: Test B flood test smallflower flatsedge; assay type: in vivo, Cyperus difformis
Procedure, shortened: as §2

bamyardgrass = test: Test B flood test barnyardgrass; assay type: in vivo, Echinochloa crus-galli
Procedure, shortened: as §2

[1] = Postemergence, Rate 62 g/ha, scale of 0 to 10, 0 is no effect, 10 is complete control
[2] = Postemergence, Rate 500 g/ha, scale of 0 to 10 where 0 is no effect and 10 is complete control
[3] = Preemergence, Rate 62 g/ha, scale 0 to 10 (0 no effect, 10 complete control)
[4] = Preemergence, Rate 125 g/ha, scale 0 to 10, 0 is no effect, 10 is complete control
[5] = Preemergence, Rate 500 g/ha, scale of 0 to 10 where 0 is no effect and 10 is complete control
[6] = Postemergence, Rate 125 g/ha, scale 0 to 10, 0 is no effect, 10 is complete control
[7] = Rate 250 g/ha, Postemergence, scale of 0 to 10 where 0 is no effect and 10 is complete control
[8] = Rate 62 g/ha, flood test species, Pre-emergence, visual evaluation after twelve to sixteen days
[9] = Rate 125 g/ha, under heading Pre-emergence, flood test species, visual evaluation after twelve to sixteen days
[10] = Rate 250 g/ha, Pre-emergence (flood test species), scale 0 to 10, 0 is no effect, 10 is complete control
[11] = Rate 500 g/ha, Pre-emergence section of Table B, 0 to 10 scale (0 no effect, 10 complete control)

## CC(C)N(C(=O)n1oc(=O)n(CCC2OCCCO2)c1=O)c1ccccc1 [Compound 561]
bedstraw; [1]
  Bedstraw plant response rating: 0
bedstraw; [2]
  Plant response rating, Bedstraw: 7
bedstraw; [3]
  Bedstraw plant response rating: 0
bedstraw; [4]
  Bedstraw plant response rating: 0
bedstraw; Preemergence, Rate 250 g/ha
  Bedstraw plant response rating (0 to 10 scale): 2
bedstraw; [5]
  Bedstraw plant response rating: 8
blackgrass; [1]
  Blackgrass plant response rating: 2
blackgrass; [6]
  Blackgrass plant response rating: 5
blackgrass; [2]
  Plant response rating, Blackgrass: 6
blackgrass; [3]
  Blackgrass plant response rating: 5
blackgrass; [4]
  Blackgrass plant response rating: 7
blackgrass; Preemergence, Rate 250 g/ha
  Blackgrass plant response rating (0 to 10 scale): 9
blackgrass; [5]
  Blackgrass plant response rating: 9
blackgrass; [7]
  Plant response rating, Blackgrass: 6
Surinam grass; [1]
  B. signalgrass plant response rating: 0
Surinam grass; [6]
  B. signalgrass plant response rating: 0
Surinam grass; [2]
  Plant response rating, B. signalgrass: 8
Surinam grass; [3]
  B. signalgrass plant response rating: 4
Surinam grass; [4]
  B. signalgrass plant response rating: 4
Surinam grass; Preemergence, Rate 250 g/ha
  B. signalgrass plant response rating (0 to 10 scale, 0 is no effect, 10 is complete control): 8
Surinam grass; [5]
  B. signalgrass plant response rating: 9
Surinam grass; [7]
  Plant response rating, B. signalgrass: 6
corn; [1]
  Corn plant response rating: 0
corn; [6]
  Corn plant response rating: 0
corn; [2]
  Plant response rating, Corn: 3
corn; [3]
  Corn plant response rating: 0
corn; [4]
  Corn plant response rating: 0
corn; Preemergence, Rate 250 g/ha
  Corn plant response rating (0 to 10 scale): 2
corn; [5]
  Corn plant response rating: 5
corn; [7]
  Plant response rating, Corn: 0
crabgrass; [1]
  Crabgrass plant response rating: 2
crabgrass; [6]
  Crabgrass plant response rating: 3
crabgrass; [2]
  Plant response rating, Crabgrass: 9
crabgrass; [3]
  Crabgrass plant response rating: 9
crabgrass; [4]
  Crabgrass plant response rating: 9
crabgrass; Preemergence, Rate 250 g/ha
  Crabgrass plant response rating (0 to 10 scale): 9
crabgrass; [5]
  Crabgrass plant response rating: 9
crabgrass; [7]
  Plant response rating, Crabgrass: 4
Giant foxtail; [1]
  Giant foxtail plant response rating: 2
Giant foxtail; [6]
  Giant foxtail plant response rating: 4
Giant foxtail; [2]
  Plant response rating, Giant foxtail: 8
Giant foxtail; [3]
  Giant foxtail plant response rating: 0
Giant foxtail; [4]
  Giant foxtail plant response rating: 6
Giant foxtail; Preemergence, Rate 250 g/ha
  Giant foxtail plant response rating (0 to 10 scale): 6
Giant foxtail; [5]
  Giant foxtail plant response rating: 7
Giant foxtail; [7]
  Plant response rating, Giant foxtail: 7
morningglory; [1]
  Morningglory plant response rating: 1
morningglory; [6]
  Morningglory plant response rating: 4
morningglory; [2]
  Plant response rating, Morningglory: 9
morningglory; [3]
  Morningglory plant response rating: 0
morningglory; [4]
  Morningglory plant response rating: 0
morningglory; Preemergence, Rate 250 g/ha
  Morningglory plant response rating (0 to 10 scale): 2
morningglory; [5]
  Morningglory plant response rating: 4
morningglory; [7]
  Plant response rating, Morningglory: 5
pigweed; [1]
  Redroot pigweed plant response rating: 0
pigweed; [2]
  Plant response rating, Redroot pigweed: 7
pigweed; [3]
  Redroot pigweed plant response rating: 3
pigweed; [4]
  Redroot pigweed plant response rating: 5
pigweed; Preemergence, Rate 250 g/ha
  Redroot pigweed plant response rating (0 to 10 scale): 9
pigweed; [5]
  Redroot pigweed plant response rating: 9
pigweed; [7]
  Plant response rating, Redroot pigweed: 0
rape; [1]
  Rape plant response rating: 4
rape; [6]
  Rape plant response rating: 4
rape; [2]
  Plant response rating, Rape: 4
rape; [3]
  Rape plant response rating: 2
rape; [4]
  Rape plant response rating: 2
rape; Preemergence, Rate 250 g/ha
  Rape plant response rating (0 to 10 scale): 5
rape; [5]
  Rape plant response rating: 9
rape; [7]
  Plant response rating, Rape: 4
Sugar beet; [1]
  Sugarbeets plant response rating: 0
Sugar beet; [2]
  Plant response rating, Sugarbeets: 4
Sugar beet; [3]
  Sugarbeets plant response rating: 0
Sugar beet; [4]
  Sugarbeets plant response rating: 0
Sugar beet; Preemergence, Rate 250 g/ha
  Sugarbeets plant response rating (0 to 10 scale): 2
Sugar beet; [5]
  Sugarbeets plant response rating: 8
wheat; [1]
  Wheat plant response rating: 0
wheat; [2]
  Plant response rating, Wheat: 7
wheat; [3]
  Wheat plant response rating: 0
wheat; [4]
  Wheat plant response rating: 4
wheat; Preemergence, Rate 250 g/ha
  Wheat plant response rating (0 to 10 scale): 6
wheat; [5]
  Wheat plant response rating: 9
wheat; [7]
  Plant response rating, Wheat: 3
Wild oat; [1]
  Wild oats plant response rating: 0
Wild oat; [2]
  Plant response rating, Wild oats: 2
Wild oat; [3]
  Wild oats plant response rating: 0
Wild oat; [4]
  Wild oats plant response rating: 2
Wild oat; Preemergence, Rate 250 g/ha
  Wild oats plant response rating (0 to 10 scale): 5
Wild oat; [5]
  Wild oats plant response rating: 9
Wild oat; [7]
  Plant response rating, Wild oats: 2
Purple nutsedge; Rate 62 g/ha, scale of 0 to 10, 0 is no effect
  Nutsedge plant response rating: 0
Purple nutsedge; Rate 125 g/ha, scale 0 to 10, 0 is no effect
  Nutsedge plant response rating: 2
Purple nutsedge; Rate 500 g/ha, scale of 0 to 10 where 0 is no effect and 10 is complete control
  Plant response rating, Nutsedge: 4
rice; [8]
  Plant response rating, Rice (0 to 10 scale, 0 is no effect, 10 is complete control): 0
rice; [9]
  Rice plant response rating (0 to 10 scale, 0 is no effect, 10 is complete control): 0
rice; [10]
  Rice plant response rating: 0
rice; [11]
  Rice plant response rating: 0
Smallflower flatsedge; [8]
  Plant response rating, S. Flatsedge (0 to 10 scale, 0 is no effect, 10 is complete control): 0
Smallflower flatsedge; [9]
  S. Flatsedge plant response rating (0 to 10 scale, 0 is no effect, 10 is complete control): 0
Smallflower flatsedge; [10]
  S. Flatsedge plant response rating: 0
Smallflower flatsedge; [11]
  S. Flatsedge plant response rating: 0
bamyardgrass; [8]
  Plant response rating, Barnyardgrass (0 to 10 scale, 0 is no effect, 10 is complete control): 0
bamyardgrass; [9]
  Barnyardgrass plant response rating (0 to 10 scale, 0 is no effect, 10 is complete control): 0
bamyardgrass; [10]
  Barnyardgrass plant response rating: 0
bamyardgrass; [11]
  Barnyardgrass plant response rating: 0
